# Where “and” joins values, the source holds several entries; their conditions need not be identical. Equal values may be shown once.
# What was measured:
# [1] = Phase 1A pharmacokinetics of oral NNI-362 in 1% methylcellulose suspension (Cohorts A-E); assay type: in vivo, human
# Description: (§1) A Phase 1A, randomized, placebo-controlled, single and multiple dose, dose-escalation study was conducted to evaluate the safety, tolerability and pharmacokinetics of oral NNI-362 in healthy aged volunteers 50 to 72 years of age. Subjects were fasted prior to dose administration. The plasma concentrations of NNI-362 were determined by a validated bioanalytical method using liquid chromatography-tandem mass spectrometry (LC-MS/MS). The analytical range was 25.0-25000 pg/ml, with 0.0500 ml sample volumes. The stable label d5-NNI-362 was used as the internal standard for this assay.
# (§2) NNI-362 was formulated in 1% (w/v) methylcellulose in sterile water as an oral suspension that was administered to Cohorts A-E. NNI-362 was administered in a lipid-based formulation (medium-chain triglycerides, Kolliphor EL and beeswax; 95/3/2%; NNI-362 added to provide 120 mg/ml) oral suspension) for Cohorts F and G.
# (§3) PK data analysis was performed on the measurable plasma concentrations of NNI-362. The plasma concentration data were evaluated using Phoenix 64® WinNonlin® software (Version 8.3) to perform noncompartmental analysis. Nominal blood collection times were used in data analysis. The dose administered in dose group was entered into the program as mg/subject.
# (§4) The following PK parameters were determined for NNI-362 plasma concentrations for each subject: observed maximal plasma concentration (Cmax), observed time to reach Cmax (Tmax), area under the plasma concentration time curve up to the last blood collection time (AUClast), and extrapolated to infinity (AUCinf), the percent of AUCinf that was extrapolated (% Extrap AUCinf), terminal elimination half-life (t1/2), and mean residence time to infinity (MRTinf). Terminal t1/2, AUCinf, MRTinf could not be calculated in some subjects due to limited data or poor fit (r<0.8) of the terminal phase of the plasma concentration and time curve. Extrapolation of more than 20% of the AUC may result in unreliable values for the terminal parameters.
# [2] = Solubility of NNI-362; assay type: physicochemical
# [3] = Phase 1A pharmacokinetics of oral NNI-362 in lipid-based formulation (Cohorts F and G); assay type: in vivo, human; conditions: for Extrap AUCinf / AUCinf / AUClast / Cmax / MRTinf / Tmax / t1/2 / AUC(0-inf) / AUC(0-t) / MRT inf / half-life: lipid formulation
# Description: Exemplary Formulation F2 was prepared by slowly adding NNI-362 into a jar containing 100 mL of lipid-based MCT/Kolliphor EL/Beeswax (95/3/2% w/w) while mixing and then stirring until all powder is wet. The actual weight of NNI-362 was between 11.88 and 12.12 g to provide the nominal concentration of 120 mg/ml.
# as §1, §2, §3, §4
# The correlation coefficient for the terminal phase was determined using WinNonlin. Significant differences in selected pharmacokinetic parameters between the SAD and MAD dose groups of cohorts F and G were evaluated using the t-test (two tail, paired test; p<0.05).
# [4] = 60 mg oral, SAD, individual subjects
# [5] = 120 mg oral, SAD, individual subjects
# [6] = human, plasma, 60 mg oral, SAD, individual subjects
# [7] = human, plasma, 120 mg oral, SAD, individual subjects
# [8] = Cohort F, 120 mg oral, MAD, individual subjects
# [9] = Cohort F, 120 mg oral, SAD, individual subjects
# [10] = Cohort G, 240 mg oral, MAD, individual subjects
# [11] = Cohort G, 240 mg oral, SAD, individual subjects
# [12] = human, plasma, po, 120 mg, Cohort F, 120 mg oral, MAD, cohort mean
# [13] = human, plasma, po, 120 mg, Cohort F, 120 mg oral, SAD, cohort mean
# [14] = human, plasma, po, 120 mg, Cohort F, 120 mg oral, SAD, individual subjects
# [15] = human, plasma, po, 240 mg, Cohort G, 240 mg oral, MAD, cohort mean
# [16] = human, plasma, po, 240 mg, Cohort G, 240 mg oral, SAD, cohort mean
structure (smiles),measurement,setting,value
CCOc1ccccc1NC(=S)N1CCCN(c2nc3cc(C)c(C)cc3cc2C#N)CC1 [NNI-362],Cmax,"[1]; 20 mg oral, MAD, individual subjects",0.0251 ng/mL
same,AUClast,[1]; [4],0.623 ng·h/mL
same,Cmax,[1]; [4],0.069 ng/mL and 0.0468 ng/mL and 0.0336 ng/mL
same,Extrap AUCinf,[1]; [4],24.1%
same,Tmax,[1]; [4],6 h and 24 h
same,Cmax,[1]; [5],0.0426 ng/mL and 0.0601 ng/mL
same,Extrap AUCinf,[1]; [5],54.5%
same,Tmax,[1]; [5],6 h and 2 h
same,plasma concentrations of NNI-362,"[1]; Cohort A, single oral dose of 10 mg per subject, LLOQ 25 pg/ml",no plasma samples from these subjects contained quantifiable concentrations
same,plasma drug concentrations,"[1]; Cohort B, 20 mg oral, two subjects, one plasma sample each",> 0.025 ng/mL
same,AUC(0-inf),[1]; [6],0.622 ng·h/mL
same,MRT inf,[1]; [6],9.2 h
same,half-life,[1]; [6],4.09 h
same,AUC(0-inf),[1]; [7],0.908 ng·h/mL
same,MRT inf,[1]; [7],5.5 h
same,half-life,[1]; [7],13.7 h
same,Cmax,"[1]; human, plasma, po, 20 mg, 20 mg oral, MAD, individual subjects, read-out: Cmax",0.0151 ng/mL
same,Tmax,"[1]; human, plasma, po, 20 mg, 20 mg oral, MAD, individual subjects, read-out: Tmax",12 h
same,AUC(0-t),"[1]; human, plasma, po, 60 mg, 60 mg oral, SAD, individual subjects",0.473 ng·h/mL
same,AUC(0-t),"[1]; human, plasma, po, 120 mg, 120 mg oral, SAD, individual subjects",0.414 ng·h/mL
same,Cmax,"[1]; human, plasma, po, 120 mg, 120 mg oral, SAD, individual subjects, read-out: Cmax",0.037 ng/mL
same,solubility,[2]; common organic solvents,soluble in common organic solvents
same,solubility,[2]; water/aqueous solutions,insoluble in water/aqueous solutions
same,Extrap AUCinf,"[3]; Cohort F, 120 mg oral, MAD, cohort mean",30.0%
same,AUCinf,[3]; [8],1.28 ng·h/mL and 3.74 ng·h/mL and 8.95 ng·h/mL and 0.719 ng·h/mL and 2.44 ng·h/mL
same,AUClast,[3]; [8],1.15 ng·h/mL and 2.68 ng·h/mL and 3.8 ng·h/mL and 0.525 ng·h/mL and 1.77 ng·h/mL and 0.179 ng·h/mL
same,Cmax,[3]; [8],0.193 ng/mL and 0.144 ng/mL and 0.208 ng/mL and 0.0638 ng/mL and 0.126 ng/mL and 0.0404 ng/mL
same,Extrap AUCinf,[3]; [8],9.78% and 28.4% and 57.5% and 26.9% and 27.7%
same,MRTinf,[3]; [8],6.68 h and 19.3 h and 42.9 h and 9.7 h and 17.6 h
same,Tmax,[3]; [8],6 h and 2 h and 8 h
same,Extrap AUCinf,"[3]; Cohort F, 120 mg oral, SAD, cohort mean",43.8%
same,AUCinf,[3]; [9],0.8 ng·h/mL and 0.511 ng·h/mL
same,AUClast,[3]; [9],0.555 ng·h/mL and 1.21 ng·h/mL and 0.289 ng·h/mL and 0.561 ng·h/mL and 0.182 ng·h/mL
same,Cmax,[3]; [9],0.101 ng/mL and 0.208 ng/mL and 0.0484 ng/mL and 0.0834 ng/mL and 0.0701 ng/mL and 0.0435 ng/mL
same,Extrap AUCinf,[3]; [9],36.9% and 29.9% and 64.5%
same,MRTinf,[3]; [9],10.2 h and 12.4 h
same,Tmax,[3]; [9],6 h and 8 h and 2 h and 1 h and 4 h and 0.5 h
same,t1/2,[3]; [9],6.15 h and 8.13 h
same,Extrap AUCinf,"[3]; Cohort G, 240 mg oral, MAD, cohort mean",34.4%
same,AUCinf,[3]; [10],4.52 ng·h/mL and 0.426 ng·h/mL and 4.23 ng·h/mL and 3.98 ng·h/mL and 0.975 ng·h/mL
same,AUClast,[3]; [10],1.99 ng·h/mL and 0.235 ng·h/mL and 4 ng·h/mL and 2.61 ng·h/mL and 2.85 ng·h/mL and 0.569 ng·h/mL
same,Cmax,[3]; [10],0.124 ng/mL and 0.059 ng/mL and 0.679 ng/mL and 0.221 ng/mL and 0.267 ng/mL and 0.0822 ng/mL
same,Extrap AUCinf,[3]; [10],54.8% and 43.9% and 5.10% and 27.7% and 40.5%
same,MRTinf,[3]; [10],39.5 h and 7.10 h and 9.51 h and 18.8 h and 13.5 h
same,Tmax,[3]; [10],2 h and 6 h and 1 h
same,t1/2,[3]; [10],26.2 h and 4.29 h and 5.10 h and 13.5 h and 9.24 h
same,Extrap AUCinf,"[3]; Cohort G, 240 mg oral, SAD, cohort mean",28.3%
same,AUCinf,[3]; [11],0.79 ng·h/mL and 2.09 ng·h/mL and 1.09 ng·h/mL
same,AUClast,[3]; [11],0.103 ng·h/mL and 0.677 ng·h/mL and 0.243 ng·h/mL and 1.02 ng·h/mL and 0.88 ng·h/mL
same,Cmax,[3]; [11],0.0523 ng/mL and 0.0316 ng/mL and 0.13 ng/mL and 0.0857 ng/mL and 0.0846 ng/mL and 0.21 ng/mL
same,Extrap AUCinf,[3]; [11],14.4% and 51.1% and 19.3%
same,MRTinf,[3]; [11],7.76 h and 36.9 h and 5.56 h
same,Tmax,[3]; [11],2 h and 6 h and 1 h and 4 h
same,t1/2,[3]; [11],2.6 h and 2.30 h
same,Concentration,"[3]; Formulation F2, Cohort F, 120 mg single dose, Day 1, K3 EDTA human plasma, patient SRI-F-005, 0 h",< LLOQ
same,Concentration,"[3]; Formulation F2, Cohort F, 120 mg single dose, Day 1, K3 EDTA human plasma, patient SRI-F-005, 12 h",< LLOQ
same,Concentration,"[3]; Formulation F2, Cohort F, 120 mg single dose, Day 1, K3 EDTA human plasma, patient SRI-F-005, 24 h",< LLOQ
same,Tmax,"[3]; human, plasma, oral, range over Cohorts F and G, SAD and MAD, read-out: Tmax values",0.5 to 8 h
same,AUC(0-inf),[3]; [12],3.43 ± 3.3 ng·h/mL
same,AUC(0-t),[3]; [12],1.68 ng·h/mL
same,MRT inf,[3]; [12],19.2 ± 14.3 h
same,half-life,[3]; [12],12.2 ± 10.2 h
same,Cmax,"[3]; human, plasma, po, 120 mg, Cohort F, 120 mg oral, MAD, cohort mean, read-out: Cmax",0.129 ng/mL
same,Cmax,"[3]; human, plasma, po, 120 mg, Cohort F, 120 mg oral, MAD, cohort mean, read-out: Cmax after multiple doses",0.129 ± 0.0673 ng/mL
same,Tmax,"[3]; human, plasma, po, 120 mg, Cohort F, 120 mg oral, MAD, cohort mean, read-out: Tmax",4.33 h
same,AUC(0-inf),[3]; [13],0.59 ± 0.184 ng·h/mL
same,AUC(0-t),[3]; [13],0.559 ng·h/mL
same,MRT inf,[3]; [13],9.99 ± 2.55 h
same,half-life,[3]; [13],6.24 ± 1.84 h
same,Cmax,"[3]; human, plasma, po, 120 mg, Cohort F, 120 mg oral, SAD, cohort mean, read-out: Cmax",0.0924 ± 0.0606 ng/mL
same,Tmax,"[3]; human, plasma, po, 120 mg, Cohort F, 120 mg oral, SAD, cohort mean, read-out: Tmax",3.58 h
same,AUC(0-inf),[3]; [14],0.458 ng·h/mL
same,MRT inf,[3]; [14],7.35 h
same,half-life,[3]; [14],4.45 h
same,AUC(0-inf),[3]; [15],2.83 ± 1.96 ng·h/mL
same,AUC(0-t),[3]; [15],2.04 ng·h/mL
same,MRT inf,[3]; [15],17.7 ± 13 h
same,half-life,[3]; [15],11.7 ± 8.94 h
same,Cmax,"[3]; human, plasma, po, 240 mg, Cohort G, 240 mg oral, MAD, cohort mean, read-out: Cmax",0.239 ± 0.23 ng/mL
same,Tmax,"[3]; human, plasma, po, 240 mg, Cohort G, 240 mg oral, MAD, cohort mean, read-out: Tmax",3.17 h
same,AUC(0-inf),[3]; [16],1.32 ± 0.681 ng·h/mL
same,AUC(0-t),[3]; [16],0.585 ng·h/mL
same,MRT inf,[3]; [16],16.7 ± 17.5 h
same,half-life,[3]; [16],2.58 ± 0.25 h
same,Cmax,"[3]; human, plasma, po, 240 mg, Cohort G, 240 mg oral, SAD, cohort mean, read-out: Cmax",0.099 ng/mL
same,Tmax,"[3]; human, plasma, po, 240 mg, Cohort G, 240 mg oral, SAD, cohort mean, read-out: Tmax",2.83 h
same,Cmax,"[3]; human, plasma, po, 240 mg, Cohort G, 240 mg oral, SAD, cohort mean, read-out: mean Cmax",0.099 ± 0.0639 ng/mL
same,half-life,"[3]; human, plasma, po, 240 mg, Cohort G, 240 mg oral, SAD, individual subjects",2.8 h
same,concentration at 0.5 h,"[3]; oral, Formulation F2, Cohort F, 120 mg single dose, Day 1, K3 EDTA human plasma, patient SRI-F-005, 0.5 h",0.0768 ng/mL
same,concentration at 1 h,"[3]; oral, Formulation F2, Cohort F, 120 mg single dose, Day 1, K3 EDTA human plasma, patient SRI-F-005, 1 h",0.0834 ng/mL
same,concentration at 2 h,"[3]; oral, Formulation F2, Cohort F, 120 mg single dose, Day 1, K3 EDTA human plasma, patient SRI-F-005, 2 h",0.0388 ng/mL
same,concentration at 4 h,"[3]; oral, Formulation F2, Cohort F, 120 mg single dose, Day 1, K3 EDTA human plasma, patient SRI-F-005, 4 h",0.0253 ng/mL
same,concentration at 6 h,"[3]; oral, Formulation F2, Cohort F, 120 mg single dose, Day 1, K3 EDTA human plasma, patient SRI-F-005, 6 h",0.0267 ng/mL
same,concentration at 8 h,"[3]; oral, Formulation F2, Cohort F, 120 mg single dose, Day 1, K3 EDTA human plasma, patient SRI-F-005, 8 h",0.0263 ng/mL

# Source: US20240285646A1, “METHODS AND COMPOSITIONS FOR LIPID FORMULATION OF LIPOPHILIC SMALL MOLECULE THERAPIES OF THE HETEROCYCLIC TYPE” (Neuronascent, Inc., priority 2021, published 2024)
